Results reported in patent US9738634B2, “Heterocyclic amide compound and herbicide” (SYNGENTA PARTICIPATIONS AG, priority 2013, dated 2017).

Assays:
Type in all cases: in vivo
directly sown rice [1] = assay: Test Example 4: foliar treatment, effect on crop; b: directly sown rice; conditions: treatment dosage 135.45 g/ha
Procedure: (§1) Testing of Weedkilling Efficacy by Foliar Treatment
(§2) Sterilized diluvial soil was introduced into 21 cm long, 13 cm wide, 7 cm deep plastic boxes, and seeds of crabgrass, green foxtail, barnyard grass, wild oat, black-grass, Italian ryegrass, common wind-grass, Indian mallow, redroot pigweed, fig-leafed goosefoot, chickweed, catchweed, birds-eye speedwell, corn, soybean, rice, wheat, beet and rapeseed were each spot-sown, and covered with about 1.5 cm of soil, then the plants were grown in a greenhouse at 25 to 30° C.
(§3) After they had grown for 14 days, emulsions of compounds of the present invention prepared according to compounding example 2 were diluted with water to give the specified dosages, and applied uniformly onto the stem and leaf parts with a small sprayer. 3 weeks after the pesticide treatment the effect on each type of plant was investigated on the basis of the assessment criteria of test example 1.
(§4) A: barnyard grass, B: bulrush, C: oval-leafed pondweed, D: crabgrass, E: green foxtail, F: barnyard grass, G: wild oat, H: black-grass, I: Italian ryegrass, J: common wind-grass, K: Indian mallow, L: redroot pigweed, M: fig-leafed goosefoot, N: chickweed, O: catchweed, p: birds-eye speedwell, a: transplanted rice, b: directly sown rice, c: corn, d: soybean, e: wheat, f: beet, g: rapeseed
(§5) Further, pesticide dosage (g/ha) indicates the concentration regulated such that treatment was with only the stated number of grams (g), when calculated per hectare (ha).

wheat [2] = assay: Test Example 4: foliar treatment, effect on crop; e: wheat; conditions: treatment dosage 135.45 g/ha
Procedure: as §1, §2, §3, §4, §5

barnyard grass [3] = assay: Test Example 2: weedkilling efficacy, growth period weed treatment in the submerged state; A: barnyard grass; conditions: treatment dosage 108.36 g/ha
Summary of the method: (§6)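 Weeds treated at the 1-2 leaf stage by application of diluted emulsion onto floodwater (4 cm depth, alluvial soil) at specified g/ha. Grown in greenhouse at 25 to 30° C; herbicidal effect rated three weeks after treatment.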

soybean [4] = assay: Test Example 4: foliar treatment, effect on crop; d: soybean; conditions: treatment dosage 135.45 g/ha
Procedure: as §1, §2, §3, §4, §5

beet = assay: Test Example 4: foliar treatment, effect on crop; f: beet; conditions: treatment dosage 135.45 g/ha
Procedure: as §1, §2, §3, §4, §5

birds-eye speedwell [5] = assay: Test Example 3: weedkilling efficacy through soil treatment; p: birds-eye speedwell; conditions: treatment dosage 135.45 g/ha
Summary of the method: (§7)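 Crop and weed responses were judged three weeks after a uniform surface spray of the water-diluted emulsion at the given g/ha rate. Seeds sat beneath about 1.5 cm of sterilized diluvial soil, and boxes stood in a greenhouse at 25 to 30° C.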

transplanted rice = assay: Test Example 1: preemergent weed treatment in the submerged state, effect on crop; a: transplanted rice; conditions: treatment dosage 108.36 g/ha
Summary of the method: (§8)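 Pre-emergence application onto floodwater (4 cm, alluvial soil) on the day of sowing, dose expressed as g/ha from diluted emulsion formulation. Weeds sown with 2.5-leaf transplanted rice as crop; plants held at 25–30 °C in greenhouse and scored against assessment criteria after 3 weeks.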

chickweed [6] = assay: Test Example 4: weedkilling efficacy by foliar treatment; N: chickweed; conditions: treatment dosage 135.45 g/ha
Procedure: as §1, §2, §3, §4, §5

directly sown rice [7] = assay: Test Example 3: soil treatment, effect on crop; b: directly sown rice; conditions: treatment dosage 135.45 g/ha
Summary of the method: as §7

barnyard grass [8] = assay: Test Example 1: weedkilling efficacy, preemergent weed treatment in the submerged state; A: barnyard grass; conditions: treatment dosage 108.36 g/ha
Summary of the method: as §8

green foxtail [9] = assay: Test Example 4: weedkilling efficacy by foliar treatment; E: green foxtail; conditions: treatment dosage 135.45 g/ha
Procedure: as §1, §2, §3, §4, §5

fig-leafed goosefoot [10] = assay: Test Example 3: weedkilling efficacy through soil treatment; M: fig-leafed goosefoot; conditions: treatment dosage 135.45 g/ha
Summary of the method: as §7

crabgrass [11] = assay: Test Example 3: weedkilling efficacy through soil treatment; D: crabgrass; conditions: treatment dosage 135.45 g/ha
Summary of the method: as §7

oval-leafed pondweed [12] = assay: Test Example 2: weedkilling efficacy, growth period weed treatment in the submerged state; C: oval-leafed pondweed; conditions: treatment dosage 108.36 g/ha
Summary of the method: as §6

Indian mallow [13] = assay: Test Example 4: weedkilling efficacy by foliar treatment; K: Indian mallow; conditions: treatment dosage 135.45 g/ha
Procedure: as §1, §2, §3, §4, §5

Indian mallow [14] = assay: Test Example 3: weedkilling efficacy through soil treatment; K: Indian mallow; conditions: treatment dosage 135.45 g/ha
Summary of the method: as §7

bulrush [15] = assay: Test Example 1: weedkilling efficacy, preemergent weed treatment in the submerged state; B: bulrush; conditions: treatment dosage 108.36 g/ha
Summary of the method: as §8

corn [16] = assay: Test Example 3: soil treatment, effect on crop; c: corn; conditions: treatment dosage 135.45 g/ha
Summary of the method: as §7

black-grass [17] = assay: Test Example 3: weedkilling efficacy through soil treatment; H: black-grass; conditions: treatment dosage 135.45 g/ha
Summary of the method: as §7

green foxtail [18] = assay: Test Example 3: weedkilling efficacy through soil treatment; E: green foxtail; conditions: treatment dosage 135.45 g/ha
Summary of the method: as §7

fig-leafed goosefoot [19] = assay: Test Example 4: weedkilling efficacy by foliar treatment; M: fig-leafed goosefoot; conditions: treatment dosage 135.45 g/ha
Procedure: as §1, §2, §3, §4, §5

birds-eye speedwell [20] = assay: Test Example 4: weedkilling efficacy by foliar treatment; p: birds-eye speedwell; conditions: treatment dosage 135.45 g/ha
Procedure: as §1, §2, §3, §4, §5

Italian ryegrass [21] = assay: Test Example 4: weedkilling efficacy by foliar treatment; I: Italian ryegrass; conditions: treatment dosage 135.45 g/ha
Procedure: as §1, §2, §3, §4, §5

corn [22] = assay: Test Example 4: foliar treatment, effect on crop; c: corn; conditions: treatment dosage 135.45 g/ha
Procedure: as §1, §2, §3, §4, §5

oval-leafed pondweed [23] = assay: Test Example 1: weedkilling efficacy, preemergent weed treatment in the submerged state; C: oval-leafed pondweed; conditions: treatment dosage 108.36 g/ha
Summary of the method: as §8

redroot pigweed [24] = assay: Test Example 3: weedkilling efficacy through soil treatment; L: redroot pigweed; conditions: treatment dosage 135.45 g/ha
Summary of the method: as §7

chickweed [25] = assay: Test Example 3: weedkilling efficacy through soil treatment; N: chickweed; conditions: treatment dosage 135.45 g/ha
Summary of the method: as §7

bulrush [26] = assay: Test Example 2: weedkilling efficacy, growth period weed treatment in the submerged state; B: bulrush; conditions: treatment dosage 108.36 g/ha
Summary of the method: as §6

soybean [27] = assay: Test Example 3: soil treatment, effect on crop; d: soybean; conditions: treatment dosage 135.45 g/ha
Summary of the method: as §7

redroot pigweed [28] = assay: Test Example 4: weedkilling efficacy by foliar treatment; L: redroot pigweed; conditions: treatment dosage 135.45 g/ha
Procedure: as §1, §2, §3, §4, §5

crabgrass [29] = assay: Test Example 4: weedkilling efficacy by foliar treatment; D: crabgrass; conditions: treatment dosage 135.45 g/ha
Procedure: as §1, §2, §3, §4, §5

black-grass [30] = assay: Test Example 4: weedkilling efficacy by foliar treatment; H: black-grass; conditions: treatment dosage 135.45 g/ha
Procedure: as §1, §2, §3, §4, §5

catchweed = assay: Test Example 4: weedkilling efficacy by foliar treatment; O: catchweed; conditions: treatment dosage 135.45 g/ha
Procedure: as §1, §2, §3, §4, §5

wheat [31] = assay: Test Example 3: soil treatment, effect on crop; e: wheat; conditions: treatment dosage 135.45 g/ha
Summary of the method: as §7

Italian ryegrass [32] = assay: Test Example 3: weedkilling efficacy through soil treatment; I: Italian ryegrass; conditions: treatment dosage 135.45 g/ha
Summary of the method: as §7

CC1=C(c2ccccc2)C(=O)N(C(C)(C)C(=O)Nc2cccc(C)n2)CO1 [B-2-53]
b (directly sown rice) effect on crop grade (directly sown rice [1]): 4 (weed kill ratio 70% or more, less than 90%) | e (wheat) effect on crop grade (wheat [2]): 1 (weed kill ratio 5% or more, less than 20%) | A (barnyard grass) weedkilling efficacy grade (barnyard grass [3]): 3 (weed kill ratio 40% or more, less than 70%) | d (soybean) effect on crop grade (soybean [4]): 4 (weed kill ratio 70% or more, less than 90%) | f (beet) effect on crop grade (beet): 0 (weed kill ratio 5% or less (practically no effect)) | P (birds-eye speedwell) weedkilling efficacy grade (birds-eye speedwell [5]): 5 (weed kill ratio 90% or more, (practically complete withering)) | a (transplanted rice) effect on crop grade (transplanted rice): 0 (weed kill ratio 5% or less (practically no effect)) | N (chickweed) weedkilling efficacy grade (chickweed [6]): 1 (weed kill ratio 5% or more, less than 20%) | b (directly sown rice) effect on crop grade (directly sown rice [7]): 3 (weed kill ratio 40% or more, less than 70%) | A (barnyard grass) weedkilling efficacy grade (barnyard grass [8]): 5 (weed kill ratio 90% or more, (practically complete withering)) | E (green foxtail) weedkilling efficacy grade (green foxtail [9]): 5 (weed kill ratio 90% or more, (practically complete withering)) | M (fig-leafed goosefoot) weedkilling efficacy grade (fig-leafed goosefoot [10]): 4 (weed kill ratio 70% or more, less than 90%) | D (crabgrass) weedkilling efficacy grade (crabgrass [11]): 5 (weed kill ratio 90% or more, (practically complete withering)) | C (oval-leafed pondweed) weedkilling efficacy grade (oval-leafed pondweed [12]): 4 (weed kill ratio 70% or more, less than 90%) | K (Indian mallow) weedkilling efficacy grade (Indian mallow [13]): 4 (weed kill ratio 70% or more, less than 90%) | K (Indian mallow) weedkilling efficacy grade (Indian mallow [14]): 0 (weed kill ratio 5% or less (practically no effect)) | B (bulrush) weedkilling efficacy grade (bulrush [15]): 5 (weed kill ratio 90% or more, (practically complete withering)) | c (corn) effect on crop grade (corn [16]): 0 (weed kill ratio 5% or less (practically no effect)) | H (black-grass) weedkilling efficacy grade (black-grass [17]): 5 (weed kill ratio 90% or more, (practically complete withering)) | E (green foxtail) weedkilling efficacy grade (green foxtail [18]): 5 (weed kill ratio 90% or more, (practically complete withering)) | M (fig-leafed goosefoot) weedkilling efficacy grade (fig-leafed goosefoot [19]): 3 (weed kill ratio 40% or more, less than 70%) | P (birds-eye speedwell) weedkilling efficacy grade (birds-eye speedwell [20]): 4 (weed kill ratio 70% or more, less than 90%) | I (Italian ryegrass) weedkilling efficacy grade (Italian ryegrass [21]): 5 (weed kill ratio 90% or more, (practically complete withering)) | c (corn) effect on crop grade (corn [22]): 1 (weed kill ratio 5% or more, less than 20%) | C (oval-leafed pondweed) weedkilling efficacy grade (oval-leafed pondweed [23]): 5 (weed kill ratio 90% or more, (practically complete withering)) | L (redroot pigweed) weedkilling efficacy grade (redroot pigweed [24]): 3 (weed kill ratio 40% or more, less than 70%) | N (chickweed) weedkilling efficacy grade (chickweed [25]): 0 (weed kill ratio 5% or less (practically no effect)) | B (bulrush) weedkilling efficacy grade (bulrush [26]): 5 (weed kill ratio 90% or more, (practically complete withering)) | d (soybean) effect on crop grade (soybean [27]): 0 (weed kill ratio 5% or less (practically no effect)) | L (redroot pigweed) weedkilling efficacy grade (redroot pigweed [28]): 4 (weed kill ratio 70% or more, less than 90%) | D (crabgrass) weedkilling efficacy grade (crabgrass [29]): 5 (weed kill ratio 90% or more, (practically complete withering)) | H (black-grass) weedkilling efficacy grade (black-grass [30]): 5 (weed kill ratio 90% or more, (practically complete withering)) | O (catchweed) weedkilling efficacy grade (catchweed): 3 (weed kill ratio 40% or more, less than 70%) | e (wheat) effect on crop grade (wheat [31]): 2 (weed kill ratio 20% or more, less than 40%) | I (Italian ryegrass) weedkilling efficacy grade (Italian ryegrass [32]): 5 (weed kill ratio 90% or more, (practically complete withering))
